This note sets out measurements from PMC12389619, “Discovery and Evaluation of Novel Sulfonamide Derivatives Targeting Aromatase in ER+ Breast Cancer” (Pharmaceuticals, 2025).

Test [1] has as its target T1, Aromatase (CYP19A) (Homo sapiens, UniProt P11511).
T1 sequence (P11511 1-503): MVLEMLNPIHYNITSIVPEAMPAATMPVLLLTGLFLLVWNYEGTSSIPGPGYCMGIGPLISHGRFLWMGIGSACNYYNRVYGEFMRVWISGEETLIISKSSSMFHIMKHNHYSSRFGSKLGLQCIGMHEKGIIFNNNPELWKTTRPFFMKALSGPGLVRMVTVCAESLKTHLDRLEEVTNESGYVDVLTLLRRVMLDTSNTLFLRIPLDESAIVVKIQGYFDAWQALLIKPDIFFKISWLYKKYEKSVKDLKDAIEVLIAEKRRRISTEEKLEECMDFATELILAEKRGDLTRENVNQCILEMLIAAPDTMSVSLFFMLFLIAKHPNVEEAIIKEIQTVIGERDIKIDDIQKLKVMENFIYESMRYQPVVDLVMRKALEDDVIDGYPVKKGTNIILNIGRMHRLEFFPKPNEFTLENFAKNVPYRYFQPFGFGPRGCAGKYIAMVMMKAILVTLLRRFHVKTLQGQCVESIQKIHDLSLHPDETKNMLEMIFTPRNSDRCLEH
Description: biochemical.

Test [2] relates to NIH3T3 mouse fibroblast cell line. Briefly: MTT cytotoxicity assay on NIH3T3. The note with it: read-out: NIH3T3 IC50. On the technique in general: Tetrazolium assays rely on reduction of a dye to a coloured formazan, in cell work by metabolically active cells.
Description: (§1) MCF7 and NIH3T3 were grown in Dulbecco’s Modified Eagle Medium (DMEM, Sigma-Aldrich, USA); supplemented with 10% fetal bovine serum (Capricorn Scientific, Ebsdorfergrund, Germany) and 1% antibiotics (100 mg/mL of streptomycin and 100 units of penicillin, Sigma-Aldrich, Taufkirchen, Germany); and incubated until confluent at 37 °C in a humidified incubator with a 5% CO2 atmosphere.
(§2) The cytotoxicity assays were performed using the human MCF7, mouse fibroblast NIH3T3, and human non-tumorigenic mammary epithelial MCF12A cell lines in accordance with the MTT procedure previously reported [37, 38].
(§3) The compounds were dissolved in dimethyl sulfoxide (DMSO, AppliChem, Darmstadt, Germany) and diluted to the required concentrations with fresh medium, while the solvent control was prepared with a medium containing 0.1% DMSO. The half-maximal inhibitory concentrations (IC50) of the compounds were determined by calculating the cell viability via the MTT assay. The cells were harvested and counted using an automated cell counter (LUNA II, Logos Biosystems, Gyeonggi, Republic of Korea). […] Following a 24 h incubation period, the MTT solution was added to the wells to a final concentration of 5 mg/mL. The cells were incubated for a 3 h period, after which point the medium was removed and 100 µL of DMSO was added. The absorbances were measured at 540 nm using a MultiMode Plate Reader (BioTek, HTX Synergy, Winooski, Vermont, USA).
The test system of test [3] is MCF7 human breast cancer cell line. Description: MTT cytotoxicity assay on MCF7. The note with it: read-out: MCF7 IC50.
Description: as §1, §2, §3
In test [4] the target is T1, Aromatase (CYP19A). The settings on record: read-out: Aromatase IC50; means of quartet assays.
The test system of test [5] is MCF12A non-tumorigenic mammary cell line. Description: MTT cell viability on MCF12A. The class given is cell-based, human. The note with it: concentration range 1 mM–1 nM, 24 h. The procedure:
This fact is of crucial importance to the effective and safe treatment of cancer since selectivity refers to the ability of a drug to target cancer cells while minimizing the harm to healthy cells. This targeted approach has the potential to yield more efficacious therapies with a reduced incidence of adverse effects, thereby enhancing patient outcomes.
MCF12A was maintained in DMEM/Ham’s F12 (1:1); supplemented with 5% horse serum, 20 ng/mL of human epidermal growth factor, 0.01 mg/mL of bovine insulin, 500 ng/mL of hydrocortisone, and 100 U/mL (50 µg/mL) of penicillin–streptomycin; and maintained at 37 °C in a humidified atmosphere of 5% CO2.

Where two headings read alike, the source gives them in different places.

`O=S(=O)(Cc1ccccc1)NCCN1CCCCC1` [Compound 10, 1-phenyl-N-(2-(piperidin-1-yl)ethyl)methanesulfonamide]: the IC50 – broadly, the concentration needed to halve the response being measured – in test [1] was determined as 0.052 ± 0.002 µM; in test [2] (Mus musculus, NIH3T3, 24 h) it was 30.9 ± 1.03 µM; in test [3] (Homo sapiens, MCF7, 24 h), 6.2 ± 0.258 µM.
Take “4-methyl-N-(2-morpholinethyl)benzenesulfonamide [Compound 16]”: the concentration for half-maximal inhibition (IC50) came out at 0.16 ± 0.006 µM in test [4]; 50.9 ± 1.51 µM in test [2] (MTT, 24 h, healthy model, means of quartet assays); 19.6 ± 0.678 µM in test [3] (MTT, 24 h, means of quartet assays).
Regarding `Cc1ccc(S(=O)(=O)Nc2ncc(Cl)cc2Cl)cc1` [Compound 5, N-(3,5-dichloropyridin-2-yl)-4-methylbenzenesulfonamide], the IC50 in test [1] was above 100 µM; in test [2] (Mus musculus, NIH3T3, 24 h) it was 76.6 ± 1.13 µM; in test [3] (Homo sapiens, MCF7, 24 h), above 100 µM.
`Cc1ccc(S(=O)(=O)NCCc2ccccn2)cc1` [Compound 2, 4-methyl-N-(2-(pyridin-2-yl)ethyl)benzenesulfonamide]: the IC50 in test [1] is 0.248 ± 0.01 µM; in test [2] (Mus musculus, NIH3T3, 24 h), 51.4 ± 1.74 µM; in test [3] (Homo sapiens, MCF7, 24 h) it was 15.4 ± 0.356 µM.
Turning to `Cc1ccc(S(=O)(=O)NCCN2CCCCC2)cc1` [Compound 11], the IC50 in test [2] (Mus musculus, NIH3T3, 24 h) amounted to 29.6 ± 0.812 µM; in test [3] (Homo sapiens, MCF7, 24 h) it was 43.6 ± 1.86 µM.
In the case of `CN1CCCC1CCNS(=O)(=O)c1ccccc1` (stereo not drawn) [Compound 13, N-(2-(1-methylpyrrolidin-2-yl)ethyl)benzenesulfonamide], the IC50 in test [2] (Mus musculus, NIH3T3, 24 h) amounted to 49.6 ± 1.73 µM; in test [3] (Homo sapiens, MCF7, 24 h) it was 8.06 ± 0.319 µM.
`Cc1ccc(S(=O)(=O)NC2CCN(Cc3ccccc3)CC2)cc1` [Compound 8, N-(1-benzylpiperidin-4-yl)-4-methylbenzenesulfonamide]: the IC50 in test [1] was above 1000 µM; in test [2] (Mus musculus, NIH3T3, 24 h), above 100 µM; in test [3] (Homo sapiens, MCF7, 24 h), above 100 µM.
For the compound `O=S(=O)(NCCc1ccccn1)c1ccccc1` [Compound 1, N-(2-(pyridin-2-yl)ethyl)benzenesulfonamide], the half-maximal inhibitory concentration (IC50) in test [2] (Mus musculus, NIH3T3, 24 h) amounted to 46.9 ± 1.99 µM; in test [3] (Homo sapiens, MCF7, 24 h), 7.51 ± 0.296 µM.
As to `O=S(=O)(NC1CCN(Cc2ccccc2)CC1)c1ccccc1` [Compound 7, N-(1-benzylpiperidin-4-yl)benzenesulfonamide], the IC50 in test [1] is above 1000 µM; in test [2] (Mus musculus, NIH3T3, 24 h), 44.3 ± 1.05 µM; in test [3] (Homo sapiens, MCF7, 24 h), 28.5 ± 0.514 µM.
As to `O=S(=O)(Cc1ccccc1)Nc1ncc(Cl)cc1Cl` [Compound 6, N-(3,5-dichloropyridin-2-yl)-1-phenylmethanesulfonamide], the IC50 was above 100 µM in test [1]; above 100 µM in test [2] (Mus musculus, NIH3T3, 24 h); 25.3 ± 0.945 µM in test [3] (Homo sapiens, MCF7, 24 h).
As to `Cc1ccc(S(=O)(=O)Nc2ccc(Cl)cn2)cc1` [Compound 4, N-(5-chloropyridin-2-yl)-4-methylbenzenesulfonamide], the IC50 in test [1] was above 100 µM; in test [2] (Mus musculus, NIH3T3, 24 h), above 100 µM; in test [3] (Homo sapiens, MCF7, 24 h), above 100 µM.
With `O=S(=O)(Cc1ccccc1)NCCN1CCOCC1` [Compound 17, N-(2-morpholinoethyl)-1-phenylmethanesulfonamide], the IC50 is 0.206 ± 0.009 µM in test [1]; 43.1 ± 1.03 µM in test [2] (Mus musculus, NIH3T3, 24 h); 14.6 ± 0.522 µM in test [3] (Homo sapiens, MCF7, 24 h).
Take `O=S(=O)(NCCN1CCCCC1)c1ccccc1` [Compound 9, N-(2-(piperidin-1-yl)ethyl)benzenesulfonamide]: the IC50 in test [2] (Mus musculus, NIH3T3, 24 h) was found to be 58.2 ± 0.952 µM; in test [3] (Homo sapiens, MCF7, 24 h), 3.29 ± 0.119 µM. Also, in test [5], the “effect on MCF12A cell viability” value is on record as “no effects”.
`COc1cccc2c1C(=O)c1c(O)c3c(c(O)c1C2=O)C[C@@](O)(C(=O)CO)C[C@@H]3O[C@H]1C[C@H](N)[C@H](O)[C@H](C)O1` [Doxorubicin, reference compound]: the IC50 in test [2] (Mus musculus, NIH3T3, 24 h) was above 100 µM.
On to `Cc1ccc(S(=O)(=O)NCCC2CCCN2C)cc1` (stereo not drawn) [Compound 14, 4-methyl-N-(2-(1-methylpyrrolidin-2-yl)ethyl)benzenesulfonamide], for which the IC50 in test [1] came to 0.051 ± 0.001 µM; in test [2] (Mus musculus, NIH3T3, 24 h) it was 56.1 ± 1.93 µM; in test [3] (Homo sapiens, MCF7, 24 h), 10.5 ± 0.477 µM.
Take `Cc1ccc(S(=O)(=O)NCCCN2CCCC2)cc1` [Compound 12, 4-methyl-N-(3-(pyrrolidin-1-yl)propyl)benzenesulfonamide]: the IC50 in test [1] is above 1000 µM; in test [2] (Mus musculus, NIH3T3, 24 h), above 100 µM; in test [3] (Homo sapiens, MCF7, 24 h) it was 32.1 ± 1.17 µM.
`O=S(=O)(NCCN1CCOCC1)c1ccccc1` [Compound 15, N-(2-morpholinethyl)benzenesulfonamide]: the IC50 in test [2] (Mus musculus, NIH3T3, 24 h) was 39.3 ± 0.995 µM; in test [3] (Homo sapiens, MCF7, 24 h), 12.4 ± 0.417 µM.
`Cc1ccc(S(=O)(=O)Nc2ccccn2)cc1` [Compound 3, 4-metyl-N-(pyridin-2-yl)benzenesulfonamide]: the IC50 was 0.035 ± 0.001 µM in test [1]; 64.3 ± 1.83 µM in test [2] (Mus musculus, NIH3T3, 24 h); 2.68 ± 0.104 µM in test [3] (Homo sapiens, MCF7, 24 h).
